Some test systems named below: SR; SK-MEL-28; K562; HCT-116; HCC 2998; PC-3; OVCAR-3; A498; NCI-H23; ACHN; RXF 393; BT-549; SK-MEL-5; LOX IMVI; HL-60; DU-145; NCI/ADR-RES; SF-268; MDA-N; HT-29.
Holding throughout (assay): NCI anticancer screen, dose series, 48 h

Each structure is given as a SMILES string.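 1) Cells in 96-well plates. 2) Compound, 48 h, 5 concentrations. 3) Linear interpolation between surrounding doses. 4) Unreached endpoint = highest concentration. Here, GI50 denotes the concentration required for 50% inhibition of growth.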 The source made the active and inactive calls. Cut-off read from the data, not from the text of the source: active = GI50 up to about 1.1 µM and inactive = higher.

For `COc1ccc([C@@]23OC[C@@H]4[C@@H](OC[C@@H]42)c2cc(OC)c(OC)cc23)cc1OC`, the GI50 in the experiment with SR, in the experiment on SK-MEL-28, with K562, in the experiment with HCT-116, with HCC 2998 and in the experiment with PC-3 was > 100 µM (inactive) throughout. The GI50 in the experiment on OVCAR-3, in the experiment with A498, in the experiment with NCI-H23, in the experiment on ACHN, with RXF 393 and in the experiment on BT-549 was > 100 µM (inactive) throughout. For the same molecule, the GI50 in the experiment on SK-MEL-5, in the experiment on LOX IMVI, in the experiment on HL-60, in the experiment on DU-145 and with NCI/ADR-RES was > 100 µM (inactive) in each case.
Take `CCN(CC)CCNC(=O)c1cc2cc(NC(=O)c3cc4cc(N)ccc4[nH]3)ccc2[nH]1`: the GI50 in the experiment on SR is 5.9 µM (inactive); in the experiment with SK-MEL-28, > 100 µM (inactive); with SF-268 it was 31.4 µM (inactive); with K562, 18.6 µM (inactive); in the experiment on HCT-116, 16 µM (inactive); in the experiment on HCC 2998 it was 17.1 µM (inactive). The GI50 with MDA-N was 33.9 µM (inactive); with HT-29, 30.6 µM (inactive); with A498 it was > 100 µM (inactive); in the experiment with NCI-H23, 50.6 µM (inactive); in the experiment with ACHN it was > 100 µM (inactive); in the experiment with RXF 393 it was 20.3 µM (inactive). Also, the GI50 was 28.1 µM (inactive) in the experiment with BT-549, 19.6 µM (inactive) in the experiment with DU-145 and > 100 µM (inactive) in the experiment on NCI/ADR-RES.
Consider `COc1cc2c3c(n(C)c(=O)c2cc1OC)-c1cc2c(cc1/C3=C\CCCCl)OCO2`, for which the GI50 in the experiment with SK-MEL-28 is 89.7 µM (inactive); in the experiment with SF-268, 43.6 µM (inactive); with K562, 23.2 µM (inactive); in the experiment on HCC 2998, 23 µM (inactive); in the experiment on MDA-N it was > 100 µM (inactive); with PC-3, > 100 µM (inactive). Further, the GI50 in the experiment with HT-29 is 39.7 µM (inactive); in the experiment on A498, 25.3 µM (inactive); in the experiment with NCI-H23, 19.9 µM (inactive); with ACHN it was 29.7 µM (inactive); with RXF 393, 12.9 µM (inactive); in the experiment on BT-549, 20.5 µM (inactive). In addition, the GI50 in the experiment on SK-MEL-5 is 25.6 µM (inactive); in the experiment with LOX IMVI, 39 µM (inactive); in the experiment on HL-60, 55.1 µM (inactive); in the experiment on NCI/ADR-RES it was 46.8 µM (inactive).
As to `COc1ccc2c(c1)CN1C(=N2)CSC1c1c(Cl)cccc1[N+](=O)[O-]` (stereo unspecified), the GI50 in the experiment with SR was 15.6 µM (inactive); with SK-MEL-28 it was 18.5 µM (inactive); with SF-268 it was 20 µM (inactive); in the experiment with K562 it was 13.6 µM (inactive); with HCT-116 it was 15.6 µM (inactive); with HCC 2998 it was 22.7 µM (inactive). For the same molecule, the GI50 in the experiment on MDA-N is 18.5 µM (inactive); with PC-3 it was 23.8 µM (inactive); with HT-29, 17.9 µM (inactive); in the experiment on NCI-H23, 15.8 µM (inactive); in the experiment on ACHN, 30.5 µM (inactive); with RXF 393 it was 22.5 µM (inactive). In addition, the GI50 with BT-549 is 14.9 µM (inactive); in the experiment on SK-MEL-5, 12.8 µM (inactive); in the experiment with LOX IMVI it was 18.5 µM (inactive); in the experiment with HL-60, 11.5 µM (inactive); with NCI/ADR-RES, 15.1 µM (inactive).
With `O=C1C(C(O)(C(F)(F)F)C(F)(F)F)CCC1C(O)(C(F)(F)F)C(F)(F)F` (stereo unspecified), the GI50 in the experiment on SR is 0.215 µM (active); in the experiment on SK-MEL-28 it was 3.16 µM (inactive); with SF-268, 5.7 µM (inactive); in the experiment with K562 it was 3.64 µM (inactive); in the experiment on HCT-116, 0.556 µM (active); in the experiment on HCC 2998, 0.323 µM (active). Further, the GI50 in the experiment with MDA-N was > 36.7 µM (inactive); in the experiment with PC-3, 0.176 µM (active); in the experiment on OVCAR-3, 0.918 µM (active); in the experiment with HT-29, 0.301 µM (active); in the experiment on A498, 0.964 µM (active); in the experiment with NCI-H23, 0.769 µM (active). The GI50 in the experiment with ACHN was 1.8 µM (inactive); in the experiment on RXF 393, 0.346 µM (active); in the experiment with SK-MEL-5 it was 1.72 µM (inactive); in the experiment with LOX IMVI, 0.594 µM (active); in the experiment with HL-60 it was 1.16 µM (inactive); in the experiment on DU-145, 7.96 µM (inactive). Moreover, the GI50 with NCI/ADR-RES is 2.33 µM (inactive).
Take `O=CC1C(Cl)=Nc2nc3ccccc3n2C1c1ccccc1` (stereo unspecified): the GI50 is 0.861 µM (active) with SR; 14.3 µM (inactive) in the experiment on SK-MEL-28; 16.8 µM (inactive) with SF-268; 15.2 µM (inactive) in the experiment on K562; 22.1 µM (inactive) with HCT-116; 18.2 µM (inactive) in the experiment on HCC 2998. Further, the GI50 in the experiment on PC-3 was 17.3 µM (inactive); in the experiment with OVCAR-3, 23.2 µM (inactive); in the experiment with HT-29 it was 19.1 µM (inactive); with A498, 3.01 µM (inactive); in the experiment on NCI-H23, 23.4 µM (inactive); in the experiment with ACHN it was 17.4 µM (inactive). The GI50 is 13.7 µM (inactive) with RXF 393; 15.2 µM (inactive) in the experiment on BT-549; 19.6 µM (inactive) in the experiment on SK-MEL-5; 15.5 µM (inactive) with LOX IMVI; 20 µM (inactive) in the experiment with HL-60; 16 µM (inactive) in the experiment with DU-145. Further, in the experiment with NCI/ADR-RES, the GI50 is 24 µM (inactive).
`COc1ccc(OC)c(NC(=O)C(=O)Nn2c(S)nc3ccccc3c2=O)c1`: the GI50 with SR, in the experiment with SK-MEL-28, in the experiment on SF-268, with K562, with HCT-116 and in the experiment with HCC 2998 was > 100 µM (inactive) each time. Moreover, the GI50 in the experiment on MDA-N, in the experiment on PC-3, in the experiment with OVCAR-3, with HT-29, in the experiment with A498 and with NCI-H23 was > 100 µM (inactive) each time. Moreover, the GI50 in the experiment on ACHN, with RXF 393, with BT-549, in the experiment on SK-MEL-5, in the experiment with LOX IMVI and in the experiment with HL-60 was > 100 µM (inactive) in each case. Further, the GI50 with NCI/ADR-RES is > 100 µM (inactive).
As for `CN(C)CCCSc1nc2ccccc2[nH]1`, the GI50 in the experiment with SR, in the experiment with SK-MEL-28, in the experiment with SF-268, in the experiment on K562, in the experiment with HCT-116 and in the experiment with HCC 2998 was > 100 µM (inactive) each time. Further, the GI50 in the experiment on MDA-N, in the experiment on OVCAR-3, in the experiment with HT-29, in the experiment with A498, with NCI-H23 and with ACHN was > 100 µM (inactive) each time. In addition, the GI50 in the experiment on RXF 393, in the experiment with BT-549, with SK-MEL-5, in the experiment with LOX IMVI, in the experiment on DU-145 and in the experiment with NCI/ADR-RES was > 100 µM (inactive) in each case.
Take `CCOC(=O)c1nc2ccc(C(F)(F)F)cc2nc1NCc1ccc(OC)cc1`: the GI50 in the experiment on SR is 28.2 µM (inactive); in the experiment on SF-268, > 100 µM (inactive); in the experiment on K562, 39.5 µM (inactive); in the experiment with HCT-116, 53.1 µM (inactive); with MDA-N, > 100 µM (inactive); in the experiment with PC-3 it was 56.6 µM (inactive). Besides, the GI50 is 71.8 µM (inactive) with OVCAR-3; 55.8 µM (inactive) with HT-29; 58.6 µM (inactive) with A498; 84.1 µM (inactive) with NCI-H23; 92.5 µM (inactive) in the experiment with ACHN; > 100 µM (inactive) with RXF 393. Besides, the GI50 was 60.4 µM (inactive) in the experiment with BT-549, 58.2 µM (inactive) in the experiment with SK-MEL-5, 48.6 µM (inactive) in the experiment on LOX IMVI and 68.4 µM (inactive) with NCI/ADR-RES.
Regarding `N#CC(=N)c1ncn(CCO)c1NC(=O)C(F)(F)F`, the GI50 in the experiment on SR, in the experiment with SK-MEL-28, in the experiment with SF-268, in the experiment with K562, in the experiment on HCT-116 and in the experiment on HCC 2998 was > 100 µM (inactive) throughout. Besides, the GI50 in the experiment on MDA-N, in the experiment on PC-3, in the experiment on OVCAR-3, in the experiment with HT-29, with A498 and in the experiment with NCI-H23 was > 100 µM (inactive) in each case. Also, the GI50 with ACHN, in the experiment on RXF 393, in the experiment on SK-MEL-5, with LOX IMVI, with HL-60 and in the experiment on DU-145 was > 100 µM (inactive) in each case. The GI50 with NCI/ADR-RES was > 100 µM (inactive).
Consider `CN(C)c1ccc([S+]([O-])Nc2ccccc2)cc1` (stereo unspecified), for which the GI50 with SR is 31.6 µM (inactive); with SK-MEL-28 it was > 100 µM (inactive); in the experiment on SF-268 it was 45.6 µM (inactive); in the experiment on K562, 28.1 µM (inactive); in the experiment with HCT-116 it was 26.6 µM (inactive); in the experiment with HCC 2998 it was 34.6 µM (inactive). Moreover, the GI50 with OVCAR-3 is > 100 µM (inactive); with HT-29, 76.4 µM (inactive); in the experiment on NCI-H23, 45.7 µM (inactive); in the experiment with ACHN, 29.6 µM (inactive); in the experiment on BT-549, 0.52 µM (active); with SK-MEL-5 it was 11.9 µM (inactive). Further, the GI50 was 38.9 µM (inactive) with LOX IMVI, 28.1 µM (inactive) in the experiment with HL-60, > 100 µM (inactive) with DU-145 and 22.1 µM (inactive) in the experiment with NCI/ADR-RES.
